In patent US20060063759A1, “Tricyclic steroid hormone nuclear receptor modulators” (priority 2002, published 2006):
Like-named read-outs stand apart in the source and are kept apart here.

Tests used:
glucocorticoid receptor = target: T1, glucocorticoid receptor (Homo sapiens, UniProt P04150); assay: Glucocorticoid Receptor Binding Assay ([3H]-dexamethasone, A549 cell extract); settings: [3H]-dexamethasone binding, read-out: GR Ki
T1 construct: containing 50-200 ug of A549 cell extract and 1.86 nM [^3H]-dexamethasone; host or cells: A549 human lung epithelial cells (sonicated cell extract)
T1 sequence (P04150 1-777): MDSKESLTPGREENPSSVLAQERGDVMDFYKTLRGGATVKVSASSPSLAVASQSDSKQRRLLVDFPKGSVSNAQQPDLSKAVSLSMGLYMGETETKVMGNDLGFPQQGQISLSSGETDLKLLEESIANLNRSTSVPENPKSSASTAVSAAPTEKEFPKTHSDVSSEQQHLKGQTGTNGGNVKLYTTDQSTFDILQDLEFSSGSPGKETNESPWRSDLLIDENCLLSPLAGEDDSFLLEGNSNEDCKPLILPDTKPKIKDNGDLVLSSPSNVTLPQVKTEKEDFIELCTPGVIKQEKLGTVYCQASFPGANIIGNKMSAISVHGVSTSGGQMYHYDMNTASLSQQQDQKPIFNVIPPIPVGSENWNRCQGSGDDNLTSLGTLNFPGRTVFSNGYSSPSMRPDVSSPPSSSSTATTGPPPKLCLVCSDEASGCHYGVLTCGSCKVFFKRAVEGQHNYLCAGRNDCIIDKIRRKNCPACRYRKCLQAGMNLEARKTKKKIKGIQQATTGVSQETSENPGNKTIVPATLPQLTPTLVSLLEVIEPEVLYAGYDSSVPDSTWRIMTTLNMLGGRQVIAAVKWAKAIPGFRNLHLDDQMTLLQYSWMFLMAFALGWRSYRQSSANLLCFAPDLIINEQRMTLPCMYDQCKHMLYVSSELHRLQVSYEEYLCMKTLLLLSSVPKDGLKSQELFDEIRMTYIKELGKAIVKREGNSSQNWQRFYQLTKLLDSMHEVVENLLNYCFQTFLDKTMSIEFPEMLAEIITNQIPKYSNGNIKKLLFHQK
Outline: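 A549 cell extract (50–200 ug) incubated with 1.86 nM [3H]-dexamethasone and test compound for 16 h at 4 °C in Tris-HCl pH 7.2 buffer with glycerol and molybdate. Unbound radioligand removed by dextran-coated charcoal, then supernatant bound counts measured by scintillation.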

human MR = target: T2, human MR (Homo sapiens, UniProt P08235); assay: Mineralocorticoid Receptor Binding Assay ([3H]-aldosterone)
T2 construct: The full length human MR gene is cloned from a human kidney or human brain cDNA library; His tag from the pAcHLT vector (own knowledge); made in house; host or cells: Sf9 insect cells (baculovirus, pAcHLT transfer vector)
T2 sequence (P08235 1-984): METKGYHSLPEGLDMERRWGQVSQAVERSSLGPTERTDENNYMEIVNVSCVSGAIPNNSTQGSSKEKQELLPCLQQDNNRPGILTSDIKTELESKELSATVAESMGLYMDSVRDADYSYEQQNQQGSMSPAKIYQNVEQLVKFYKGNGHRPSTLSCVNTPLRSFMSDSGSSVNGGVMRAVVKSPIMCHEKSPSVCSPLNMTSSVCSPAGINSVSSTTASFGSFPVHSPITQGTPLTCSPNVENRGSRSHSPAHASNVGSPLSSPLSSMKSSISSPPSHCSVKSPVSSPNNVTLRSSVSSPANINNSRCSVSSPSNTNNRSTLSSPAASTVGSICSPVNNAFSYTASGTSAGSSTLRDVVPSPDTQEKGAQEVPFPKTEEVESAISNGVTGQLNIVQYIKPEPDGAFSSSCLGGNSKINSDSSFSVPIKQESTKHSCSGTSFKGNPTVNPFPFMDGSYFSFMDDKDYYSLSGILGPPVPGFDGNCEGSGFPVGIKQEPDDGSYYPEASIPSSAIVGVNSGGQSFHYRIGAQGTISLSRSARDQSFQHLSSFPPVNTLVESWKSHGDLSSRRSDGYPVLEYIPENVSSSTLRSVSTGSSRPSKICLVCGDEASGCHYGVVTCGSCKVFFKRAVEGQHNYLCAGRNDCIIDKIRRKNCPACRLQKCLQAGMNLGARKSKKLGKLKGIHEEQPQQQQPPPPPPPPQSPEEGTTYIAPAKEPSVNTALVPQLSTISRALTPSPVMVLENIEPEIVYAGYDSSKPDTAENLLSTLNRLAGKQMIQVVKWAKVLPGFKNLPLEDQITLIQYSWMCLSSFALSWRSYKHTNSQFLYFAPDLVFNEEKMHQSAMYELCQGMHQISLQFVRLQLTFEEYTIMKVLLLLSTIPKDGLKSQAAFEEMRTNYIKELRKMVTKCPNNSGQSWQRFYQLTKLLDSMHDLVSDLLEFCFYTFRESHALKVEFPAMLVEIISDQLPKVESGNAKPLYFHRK
Outline: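 Lysate supernatant of Sf9 cells expressing full-length human MR (20-25 μg protein) was incubated with 0.5 nM [3H]-aldosterone and test compound in molybdate/Tris/phosphate/glycerol buffer, pH 7.5, ~16 h at 4 °C. Bound ligand was filtered and counted by scintillation; IC50 is the concentration halving [3H]-aldosterone binding.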

[1] = [3H]-aldosterone binding, human MR expressed in Sf9 cells, read-out: MR Ki

Row | SMILES | Ki (glucocorticoid receptor) | Ki (human MR; [1]) | Ki (human MR)
1 | CS(=O)(=O)Nc1cccc(/C=C2/c3ccccc3COc3cc(C(F)(F)F)ccc32)c1 [Example 682] | < 500 nM | < 500 nM | 
2 | Clc1ccc(C=C2c3ccccc3CCc3sccc32)c(Cl)c1 [Example 490] | < 10000 nM | < 1000 nM | 
3 | Oc1cccc(/C=C2/c3ccccc3CCc3ncccc32)c1 [Example 507] | < 500 nM | < 500 nM | 
4 | O=c1[nH]c2cc(/C=C3/c4ccccc4CCc4cc(F)ccc43)ccc2s1 [Example 468] | < 500 nM | < 500 nM | 
5 | CS(=O)(=O)Nc1cccc(/C=C2/c3ccccc3CCc3ccsc32)c1 [Example 502] | < 500 nM | < 500 nM | 
6 | O=c1[nH]c2cc(C=C3c4ccccc4CCc4ccccc43)ccc2o1 [Example 216, 5-(10,11-Dihydro-dibenzo[a,d]cyclohepten-5-ylidenemethyl)-3H-benzooxazol-2-one] | < 500 nM | < 500 nM | 
7 | Nc1ccccc1CC1c2ccccc2CCc2ccccc21 [Example 287] | < 500 nM | < 500 nM | 
8 | O/N=C/c1ccccc1C=C1c2ccccc2CCc2ccccc21 [Example 77, 2-(10,11-Dihydro-dibenzo[a,d]cyclohepten-5-ylidenemethyl)-benzaldehyde oxime] | < 500 nM | < 500 nM | 
9 | CC/C(=C1\c2ccccc2COc2cc(F)ccc21)c1cccc(NS(C)(=O)=O)c1 [Example 811] | < 500 nM | < 500 nM | 
10 | Oc1cccc(/C=C2/c3ccccc3CCc3c(O)cccc32)c1 [Example 377] | < 10000 nM | < 500 nM | 
11 | NS(=O)(=O)c1ccccc1C=C1c2ccccc2CCc2ccccc21 [Example 3, 2-(10,11-Dihydro-dibenzo[a,d]cyclohepten-5-ylidenemethyl)-benzenesulfonamide] | < 1000 nM | < 1000 nM | 
12 | CCCS(=O)(=O)Nc1cccc(C=C2c3ccccc3CCc3ccccc32)c1 [Example 104, Propane-1-sulfonic acid [3-(10,11-dihydro-dibenzo[a,d]cyclohepten-5-ylidenemethyl)-phenyl]-amide] | < 500 nM | < 500 nM | 
13 | COc1cccc2c1C(=Cc1cccc(NS(C)(=O)=O)c1)c1ccccc1CC2 [Example 353] | < 500 nM | < 500 nM | 
14 | CSc1ccc2c(c1)CCc1ccccc1/C2=C/c1cccc(NS(C)(=O)=O)c1 [Example 389] | < 500 nM | < 500 nM | 
15 | Fc1ccc2c(c1)CCc1ccccc1C2=Cc1cccnc1F [Example 474] | < 1000 nM | < 500 nM | 
16 | Cc1ccc2c(c1)CSc1ccccc1C2=Cc1cccc(NS(C)(=O)=O)c1 [Example 740] | < 500 nM | < 500 nM | 
17 | Nc1cccc(/C=C2/c3ccc(F)cc3CCc3ncccc32)c1 [Example 533] | < 1000 nM | < 500 nM | 
18 | O=c1[nH]c2cc(/C=C3\c4ccc(F)cc4CCc4ncccc43)ccc2n1CCN1CCOCC1 [Example 596] | < 10000 nM | < 500 nM | 
19 | COc1cccc2c1COc1ccccc1[C@H]2Cc1cccc(NS(C)(=O)=O)c1 [Example 733] | < 500 nM | < 500 nM | 

Row | SMILES | Ki (glucocorticoid receptor) | Ki (human MR; [1]) | Ki (human MR)
20 | O=c1[nH]c2cc(/C=C3\c4ccccc4COc4cc(F)ccc43)ccc2n1C1CC1 [Example 609, 1-cyclopropyl-5-(3-fluoro-6H-dibenzo[b,e]oxepin-11-ylidenemethyl)-1,3-dihydro-benzoimidazol-2-one] | < 1000 nM | < 500 nM | 
21 | C/C(=C1/c2ccc(Cl)cc2COc2cc(F)ccc21)c1cccc(NS(C)(=O)=O)c1 [Example 803] | < 500 nM | < 500 nM | 
22 | Cc1ccc2c(c1)CCc1ccccc1/C2=C/c1cccc(NS(C)(=O)=O)c1 [Example 326] | < 500 nM | < 500 nM | 
23 | CS(=O)(=O)Nc1cccc(/C=C2\c3ccccc3COc3ccc(F)cc32)c1 [Example 672] | < 500 nM | < 500 nM | 
24 | COc1ccc2c(c1)COc1cc(F)ccc1/C2=C(/C)c1cccc(NS(C)(=O)=O)c1 [Example 819] | < 500 nM |  | < 500 nM
25 | COc1ccc2c(c1)CSc1ccccc1/C2=C/c1cccc(NS(C)(=O)=O)c1 [Example 692] | < 500 nM | < 500 nM | 
26 | O=c1[nH]c2cc(C=C3c4ccccc4CCc4cc(Cl)ccc43)ccc2o1 [Example 222(a), 5-(2-Chloro-10,11-dihydro-dibenzo[a,d]cyclohepten-5-ylidenemethyl)-3H-benzooxazol-2-one] | < 500 nM | < 500 nM | 
27 | Nc1cccc(C=C2c3ccccc3CCc3sccc32)c1 [Example 477, 3-(9,10-Dihydro-1-thia-benzo[f]azulen-4-ylidenemethyl)-phenylamine] | < 10000 nM | < 500 nM | 
28 | COc1ccc(C(=C2c3ccccc3CCc3ccccc32)c2cccc(NS(C)(=O)=O)c2)cc1 [Example 768] | < 10000 nM | < 500 nM | 
29 | CS(=O)(=O)Nc1cc(F)cc(C=C2c3ccccc3CCc3ccccc32)c1 [Example 50, N-[3-(10,11-Dihydro-dibenzo[a,d]cyclohepten-5-ylidenemethyl)-5-fluoro-phenyl]-methanesulfonamide] | < 500 nM | < 500 nM | 
30 | CS(=O)(=O)Nc1cccc(CC2c3ccccc3CCc3ccc(Cl)cc32)c1 (stereo not shown) [Example 189, N-[3-(3-Chloro-10,11-dihydro-5H-dibenzo[a,d]cyclohepten-5-ylmethyl)-phenyl]-methanesulfonamide] | < 500 nM | < 500 nM | 
31 | CS(=O)(=O)Nc1cc(F)cc(/C=C2\c3ccc(F)cc3CCc3nc(C(F)F)ccc32)c1 [Example 595] | < 500 nM | < 500 nM | 
32 | CS(=O)(=O)Nc1cccc(/C=C2\c3ccccc3CCc3cccnc32)c1 [Example 249, (E)-N-[3-(5,6-Dihydro-benzo[5,6]cyclohepta[1,2-b]pyridin-11-ylidenemethyl)-phenyl]-methanesulfonamide] | < 500 nM | < 500 nM | 
33 | Oc1cccc(C=C2c3ccccc3C3C(c4ccccc42)C3(F)F)c1 (stereo not shown) [Example 256] | < 1000 nM | < 500 nM | 
34 | CC(=C1c2ccc(C)cc2CCc2cc(C)ccc21)c1cccc(NS(C)(=O)=O)c1 [Example 771] | < 500 nM | < 500 nM | 
35 | CS(=O)(=O)Nc1cccc(/C=C2\c3ccccc3CCc3cc(C(F)(F)F)ccc32)c1 [Example 391] | < 500 nM | < 500 nM | 
36 | C/C(=C1/c2ccc(F)cc2CCc2ncccc21)c1cc(F)cc(NS(C)(=O)=O)c1 [Example 836] | < 500 nM | < 500 nM | 
37 | CC(=C1c2ccccc2CCc2ccccc21)c1cccc(N)c1 [Example 761] | < 500 nM | < 500 nM | 
38 | CS(=O)(=O)Nc1cccc(C=C2c3ccccc3CCc3ccccc32)n1 [Example 231, N-[6-(10,11-Dihydro-dibenzo[a,d]cyclohepten-5-ylidenemethyl)-pyridin-2-yl]-methanesulfonamide] | < 500 nM | < 500 nM | 
